Assay results from PubChem BioAssay (NCI).
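A five-concentration, 48-hour dose response in 96-well plates underlies each endpoint, interpolated linearly between surrounding concentrations. GI50 = concentration required for 50% inhibition of growth. TGI denotes the concentration required for complete inhibition of growth.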

Assays:
Assay in all cases: NCI-60 cell line screen, 48 h
A549 NSCLC = tested on: A549 NSCLC
SF-539 CNS = tested on: SF-539 CNS
OVCAR-8 ovarian = tested on: OVCAR-8 ovarian
SK-MEL-5 melanoma = tested on: SK-MEL-5 melanoma
HCT-15 colon = tested on: HCT-15 colon
UACC-257 melanoma = tested on: UACC-257 melanoma
SK-OV-3 ovarian = tested on: SK-OV-3 ovarian
NCI-H23 lung = tested on: NCI-H23 lung
NCI/ADR-RES ovarian = tested on: NCI/ADR-RES ovarian
RPMI-8226 leukemia = tested on: RPMI-8226 leukemia

Structure (SMILES): COc1ccc(-c2nc3sccn3c2/C=C/C(=O)c2cc(OC)c(OC)c(OC)c2)cc1
- GI50 (A549 NSCLC): 2920 nM
- TGI (A549 NSCLC): > 22.9 µM
- GI50 (SF-539 CNS): 1790 nM
- TGI (SF-539 CNS): 4.96 µM
- GI50 (OVCAR-8 ovarian): 3.03 µM
- TGI (OVCAR-8 ovarian): > 21.8 µM
- GI50 (SK-MEL-5 melanoma): 1.42 µM
- TGI (SK-MEL-5 melanoma): 2.98 µM
- GI50 (HCT-15 colon): 3330 nM
- TGI (HCT-15 colon): > 83 µM
- GI50 (UACC-257 melanoma): 15200 nM
- TGI (UACC-257 melanoma): 78.7 µM
- GI50 (SK-OV-3 ovarian): 3.13 µM
- TGI (SK-OV-3 ovarian): 24.6 µM
- GI50 (NCI-H23 lung): 2490 nM
- TGI (NCI-H23 lung): > 28.7 µM
- GI50 (NCI/ADR-RES ovarian): 2.66 µM
- TGI (NCI/ADR-RES ovarian): > 28 µM
- GI50 (RPMI-8226 leukemia): 2240 nM
- TGI (RPMI-8226 leukemia): 7.56 µM

Structure (SMILES): C=C1CCC2C(C)(CO)C(O)CCC2(C)C1C/C=C1\C(=O)OCC1O (stereo unspecified)
- TGI (A549 NSCLC): 80.9 µM
- TGI (SF-539 CNS): 44.3 µM
- TGI (OVCAR-8 ovarian): 22.6 µM
- TGI (SK-MEL-5 melanoma): 27.8 µM
- TGI (HCT-15 colon): 39.5 µM
- TGI (UACC-257 melanoma): 73.8 µM
- TGI (SK-OV-3 ovarian): 66.7 µM
- TGI (NCI-H23 lung): 49.8 µM
- TGI (NCI/ADR-RES ovarian): > 100 µM
- TGI (RPMI-8226 leukemia): 49.9 µM

Structure (SMILES): COc1ccc(N=C2C(=O)Nc3ccc(Br)cc32)cc1
- TGI (A549 NSCLC): > 100 µM
- TGI (SF-539 CNS): 35.8 µM
- TGI (OVCAR-8 ovarian): 32.2 µM
- TGI (SK-MEL-5 melanoma): 23.3 µM
- TGI (HCT-15 colon): 44 µM
- TGI (UACC-257 melanoma): 48.1 µM
- TGI (SK-OV-3 ovarian): 75.3 µM
- TGI (NCI-H23 lung): 45 µM
- TGI (NCI/ADR-RES ovarian): 87.9 µM
- TGI (RPMI-8226 leukemia): 25.2 µM

Structure (SMILES): O=C(/C=C/c1ccccn1)c1ccccc1
- GI50 (A549 NSCLC): 14400 nM
- TGI (A549 NSCLC): 29.4 µM
- GI50 (SF-539 CNS): 4370 nM
- TGI (SF-539 CNS): 18.3 µM
- GI50 (OVCAR-8 ovarian): 4.18 µM
- TGI (OVCAR-8 ovarian): 16.1 µM
- GI50 (SK-MEL-5 melanoma): 12.1 µM
- TGI (SK-MEL-5 melanoma): 24.8 µM
- GI50 (HCT-15 colon): 2660 nM
- TGI (HCT-15 colon): 12.9 µM
- GI50 (UACC-257 melanoma): 2680 nM
- TGI (UACC-257 melanoma): 9.25 µM
- GI50 (SK-OV-3 ovarian): 16.8 µM
- TGI (SK-OV-3 ovarian): 30.5 µM
- GI50 (NCI-H23 lung): 16300 nM
- TGI (NCI-H23 lung): 34.8 µM
- GI50 (NCI/ADR-RES ovarian): 3.01 µM
- TGI (NCI/ADR-RES ovarian): 12.1 µM
- GI50 (RPMI-8226 leukemia): 2370 nM
- TGI (RPMI-8226 leukemia): 6.6 µM

Structure (SMILES): COc1cc(C(=O)/C=C/c2c(C)n([O-])c3ccc(Cl)cc3[n+]2=O)cc(OC)c1OC
- GI50 (A549 NSCLC): 25400 nM
- TGI (A549 NSCLC): > 100 µM
- GI50 (SF-539 CNS): 11200 nM
- TGI (SF-539 CNS): 27.4 µM
- GI50 (OVCAR-8 ovarian): 3.18 µM
- TGI (OVCAR-8 ovarian): > 100 µM
- GI50 (SK-MEL-5 melanoma): 12.1 µM
- TGI (SK-MEL-5 melanoma): > 100 µM
- GI50 (HCT-15 colon): 4260 nM
- TGI (HCT-15 colon): 30.9 µM
- GI50 (UACC-257 melanoma): 19500 nM
- TGI (UACC-257 melanoma): > 100 µM
- GI50 (SK-OV-3 ovarian): 24.9 µM
- TGI (SK-OV-3 ovarian): > 100 µM
- GI50 (NCI-H23 lung): 7590 nM
- TGI (NCI-H23 lung): 68.6 µM
- GI50 (NCI/ADR-RES ovarian): 4.89 µM
- TGI (NCI/ADR-RES ovarian): 35.8 µM
- GI50 (RPMI-8226 leukemia): 3180 nM
- TGI (RPMI-8226 leukemia): 33.4 µM

Structure (SMILES): Clc1cc(Cl)cc(Nc2ccc3c(OCCCN4CCOCC4)cccc3n2)c1
- GI50 (A549 NSCLC): 2600 nM
- TGI (A549 NSCLC): 6.87 µM
- GI50 (SF-539 CNS): 1940 nM
- TGI (SF-539 CNS): 3.84 µM
- GI50 (OVCAR-8 ovarian): 3.54 µM
- TGI (OVCAR-8 ovarian): 13.3 µM
- GI50 (SK-MEL-5 melanoma): 10.1 µM
- TGI (SK-MEL-5 melanoma): 23.2 µM
- GI50 (HCT-15 colon): 1750 nM
- TGI (HCT-15 colon): 3.52 µM
- GI50 (UACC-257 melanoma): 2050 nM
- TGI (UACC-257 melanoma): 4.31 µM
- GI50 (SK-OV-3 ovarian): 2.78 µM
- TGI (SK-OV-3 ovarian): 8.55 µM
- GI50 (NCI-H23 lung): 2940 nM
- TGI (NCI-H23 lung): 10.2 µM
- GI50 (NCI/ADR-RES ovarian): 2.88 µM
- TGI (NCI/ADR-RES ovarian): 9.29 µM
- GI50 (RPMI-8226 leukemia): 2800 nM
- TGI (RPMI-8226 leukemia): 8.33 µM

Structure (SMILES): Cc1cc(=O)[nH]c2c1C(=O)c1c(C)cc(=O)n(C)c1C2=O
- TGI (A549 NSCLC): 0.399 µM
- TGI (SF-539 CNS): 0.0369 µM
- TGI (OVCAR-8 ovarian): 0.207 µM
- TGI (SK-MEL-5 melanoma): 0.0284 µM
- TGI (HCT-15 colon): 0.264 µM
- TGI (UACC-257 melanoma): 0.0307 µM
- TGI (SK-OV-3 ovarian): 0.432 µM
- TGI (NCI-H23 lung): 0.03 µM
- TGI (NCI/ADR-RES ovarian): 0.259 µM
- TGI (RPMI-8226 leukemia): > 9.41 µM

Structure (SMILES): N#CC(C#N)=C/C=C/c1ccccc1[N+](=O)[O-]
- TGI (A549 NSCLC): > 10 µM
- TGI (SF-539 CNS): > 10 µM
- TGI (OVCAR-8 ovarian): 3.75 µM
- TGI (SK-MEL-5 melanoma): > 10 µM
- TGI (HCT-15 colon): > 10 µM
- TGI (UACC-257 melanoma): > 10 µM
- TGI (SK-OV-3 ovarian): > 10 µM
- TGI (NCI-H23 lung): > 10 µM
- TGI (NCI/ADR-RES ovarian): 4.84 µM
- TGI (RPMI-8226 leukemia): > 10 µM

Structure (SMILES): O=[N+]([O-])/C(=C/C=C/c1ccccc1)c1ccccc1
- GI50 (A549 NSCLC): 2410 nM
- TGI (A549 NSCLC): 6.79 µM
- GI50 (SF-539 CNS): 1860 nM
- TGI (SF-539 CNS): 3.61 µM
- GI50 (OVCAR-8 ovarian): 3.27 µM
- TGI (OVCAR-8 ovarian): 11.2 µM
- GI50 (SK-MEL-5 melanoma): 3.16 µM
- TGI (SK-MEL-5 melanoma): 12.1 µM
- GI50 (HCT-15 colon): 1860 nM
- TGI (HCT-15 colon): 4.22 µM
- GI50 (UACC-257 melanoma): 2740 nM
- TGI (UACC-257 melanoma): 9.32 µM
- GI50 (SK-OV-3 ovarian): 12 µM
- TGI (SK-OV-3 ovarian): 24.4 µM
- GI50 (NCI-H23 lung): 2250 nM
- TGI (NCI-H23 lung): 6.16 µM
- GI50 (NCI/ADR-RES ovarian): 3.56 µM
- TGI (NCI/ADR-RES ovarian): 11.9 µM
- GI50 (RPMI-8226 leukemia): 118 nM
- TGI (RPMI-8226 leukemia): 1.55 µM

Structure (SMILES): COc1cc(COC(=O)N(C)[C@@H](Cc2ccccc2)C(=O)O)c([N+](=O)[O-])cc1OC
- TGI (A549 NSCLC): > 100 µM
- TGI (SF-539 CNS): > 100 µM
- TGI (OVCAR-8 ovarian): > 100 µM
- TGI (SK-MEL-5 melanoma): > 100 µM
- TGI (HCT-15 colon): > 100 µM
- TGI (UACC-257 melanoma): > 100 µM
- TGI (SK-OV-3 ovarian): > 100 µM
- TGI (NCI-H23 lung): > 100 µM
- TGI (NCI/ADR-RES ovarian): > 100 µM
- TGI (RPMI-8226 leukemia): > 100 µM

Structure (SMILES): CN(C)CC(=O)N1CCc2c([nH]c3ccccc23)C1c1cccnc1 (stereo unspecified)
- TGI (A549 NSCLC): > 100 µM
- TGI (SF-539 CNS): > 100 µM
- TGI (OVCAR-8 ovarian): > 100 µM
- TGI (SK-MEL-5 melanoma): > 100 µM
- TGI (HCT-15 colon): > 100 µM
- TGI (UACC-257 melanoma): > 100 µM
- TGI (SK-OV-3 ovarian): > 100 µM
- TGI (NCI-H23 lung): > 100 µM
- GI50 (NCI/ADR-RES ovarian): > 100 µM
- TGI (NCI/ADR-RES ovarian): > 100 µM
- TGI (RPMI-8226 leukemia): > 100 µM
